{
  "source": "patent US20230044690A1",
  "about": "“PROGESTERONE FORMULATION TO TRIGGER OVULATION AND PROVIDE LUTEAL PHASE SUPPORT” (AUGUSTA UNIVERSITY RESEARCH INSTITUTE, INC., priority 2019, published 2023)",
  "key": {"[1]": {"conditions": "circulating progestins, compared by activity with 0.5 ng preovulatory progesterone; cited from earlier work"}, "ovulation [2]": {"test_system": "ovulation", "type": "in vivo, human", "method": "For the natural cycle, they were monitored with ultrasound at the base line on day 2, and then day 12 and 13. At day 13 of the cycle, their leading follicle had reached a size of 17 mm (FIG. 4B), P4 was 1.5 ng/ml and LH was 5 IU/L. They were given an intramuscular injection of 5 mg of progesterone. The protocol is outlined in FIG. 4A\nFailure of the follicle to rupture was attributed to its size (17 mm) at the time of the trigger."}, "gonadotropins surge [3]": {"test_system": "gonadotropins surge", "conditions": "cited from earlier work"}, "ovulation [4]": {"test_system": "ovulation", "type": "in vivo, human", "conditions": "case 3", "method": "A person, G2 P1, SAB1, height 152 cm, weight 164 lb was referred for infertility treatment following 6-month inability to conceive naturally. Patient's medical history was significant for PCOS and subclinical hypothyroidism, for which they were taking levothyroxine […]. Patient had menarche at 12, average period duration of 45 days, average menses duration of 6 days. Patient's fallopian tubes were both patent per HSG, with a normal uterine cavity (FIG. 6E). Their AMH was 9.3 ng/ml.\nThe medication regiment, at the beginning of the third attempt was the same as in the previous attempt when the patient became pregnant with 5 mg of Letrozole in addition to 100 mg CC for 5 days starting on the 3rd day of their period. […] Before the trigger […] P4 and LH were 0.62 ng/ml and 4.26 IU/L respectively (Table 3) and ultrasound identified three follicles 22, 22 and 19 mm (FIG. 6C-6D).\nSeven days after the trigger shot, P4 level was 38.39 ng/ml at which time the patient was started on 200 mg progesterone vaginal suppository daily."}, "gonadotropins surge [5]": {"test_system": "gonadotropins surge", "assay": "Reported progesterone dose and pharmacodynamics for induction of a gonadotropins surge (Leyendecker et al, 1972)", "type": "in vivo, human", "conditions": "about 5 mg of progesterone in sesame oil, intramuscular injection; estimate from Leyendecker 1972", "method": "The lowest dose of progesterone reported for induction of a gonadotropins surge is […] injected intramuscularly (Leyendecker, et al, 1972).\nConsequently, the target cumulative progesterone level in circulation was 1 ng/ml. Based on pharmacodynamics of progesterone (Leyendecker, et al, 1972), it was estimated that in order to achieve circulating progesterone level at its peak (120 minutes post injection) 1 ng/ml, an additional […] was needed to add to the patient's own 0.63 ng/ml. This would be achieved with about 5 mg of progesterone in sesame oil for intramuscular injection. […] Furthermore, progesterone continued to rise to the expected level several days later. The patient's P4 level on day 5 post trigger was excellent and additional supplementation with progesterone thereafter was given only for an abundance of caution."}},
  "note": "Where two headings read alike, the source gives them in different places.",
  "data": [
    {"smiles": "CC(=O)O[C@]1(C(C)=O)CC[C@H]2[C@@H]3C[C@H](C)C4=CC(=O)CC[C@]4(C)[C@H]3CC[C@@]21C", "note": "[Medroxyprogesterone acetate]", "values": [
      {"measurement": "Consensus value", "setting": "[1]", "result": 5, "unit": "mg"}
    ]},
    {"smiles": "C#CC1(O)CC[C@H]2[C@@H]3CCC4=CC(=O)CC[C@@H]4[C@H]3CC[C@@]21CC", "note": "(mixture of isomers) [D/L norgestrel]", "values": [
      {"measurement": "Consensus value", "setting": "[1]", "result": 0.075, "unit": "mg"}
    ]},
    {"smiles": "C#C[C@]1(O)CC[C@H]2[C@@H]3CCC4=CC(=O)CC[C@@H]4[C@H]3CC[C@@]21C", "note": "[Norethindrone]", "values": [
      {"measurement": "Consensus value", "setting": "[1]", "result": 0.35, "unit": "mg"}
    ]},
    {"smiles": "CC(=O)[C@H]1CC[C@H]2[C@@H]3C=CC4=CC(=O)CC[C@@]4(C)[C@@H]3CC[C@]12C", "note": "[Dydrogesterone]", "values": [
      {"measurement": "Consensus value", "setting": "[1]", "result": 10, "unit": "mg"}
    ]},
    {"smiles": "CC(=O)[C@H]1CC[C@H]2[C@@H]3CCC4=CC(=O)CC[C@]4(C)[C@H]3CC[C@]12C", "note": "[progesterone]", "values": [
      {"measurement": "Circulating hormone level LH", "setting": "ovulation [2]; 0 hrs after trigger injection, 5 mg progesterone i.m., case 1", "result": 10.9},
      {"measurement": "Follicle rupture", "setting": "ovulation [2]; 17 mm leading follicle at trigger, 5 mg progesterone i.m., case 1", "result": "failed to rupture"},
      {"measurement": "Circulating hormone level LH", "setting": "ovulation [2]; 10 hrs after trigger injection, 5 mg progesterone i.m., case 1", "result": 28.4},
      {"measurement": "Circulating hormone level LH", "setting": "ovulation [2]; 49 hrs after trigger injection, 5 mg progesterone i.m., case 1", "result": 11.36},
      {"measurement": "Time until LH was at the ovulation level", "setting": "ovulation [2]; after 5 mg progesterone i.m., case 1", "result": "≤ 12", "unit": "h"},
      {"measurement": "LH", "setting": "ovulation [2]; day 13 of the cycle, before the progesterone injection, case 1", "result": 5, "unit": "IU/L"},
      {"measurement": "P4", "setting": "ovulation [2]; female, human, in vivo", "result": 1.5, "unit": "ng/mL"},
      {"measurement": "Lowest dose reported for induction of a gonadotropins surge", "setting": "gonadotropins surge [3]; injected intramuscularly", "result": 10, "unit": "mg"},
      {"measurement": "Time of peak circulating progesterone level post injection", "setting": "gonadotropins surge [3]; intramuscular injection", "result": 120, "unit": "min"},
      {"measurement": "LH", "setting": "ovulation [4]; 17 hours 30 minutes after trigger shot, 5 mg progesterone in oil", "result": 37.01, "unit": "IU/L"},
      {"measurement": "LH", "setting": "ovulation [4]; First follicular ultrasound, before trigger shot", "result": 9.47, "unit": "IU/L"},
      {"measurement": "LH", "setting": "ovulation [4]; Stimulation day 10, before trigger shot", "result": 5.09, "unit": "IU/L"},
      {"measurement": "Ultrasound observation: uterine lining", "setting": "ovulation [4]; day 3 after trigger shot", "result": "lining - 15.2 mm"},
      {"measurement": "P4 level", "setting": "ovulation [4]; day 5 post trigger", "result": "excellent"},
      {"measurement": "LH", "setting": "ovulation [4]; day of progesterone trigger shot (stimulation day 12), before the trigger", "result": 4.26, "unit": "IU/L"},
      {"measurement": "Ultrasound observation: uterine lining", "setting": "ovulation [4]; day of progesterone trigger shot, before the trigger", "result": "10C-10D) Uterine lining 8.8 mm"},
      {"measurement": "Pregnancy outcome", "setting": "ovulation [4]; period 2 weeks later, 200 mg progesterone vaginal suppository daily from day 7", "result": "no pregnancy occurred"},
      {"measurement": "Estimated additional circulating progesterone level at its peak", "setting": "gonadotropins surge [5]", "result": 0.35, "unit": "ng/mL"}
    ]}
  ]
}
